# Reference: US5155209A, “R-(+) enantiomeric form of 7-(2, 3-epoxypropoxy) actinomycin D” (priority 1991, dated 1992)
# What was measured:
# B16 = test: Inhibition of growth in vitro of B16 cells; format: cell-based, mouse; details: actively growing tumor cells
# Experimental: (§1) The analogues are assayed for in vitro growth inhibitory activity against several experimental tumor lines including human and murine leukemia, mouse melanoma, and human lymphoblastic leukemia.
# P388/ADR [1] = test: Inhibition of growth in vitro of P388/ADR cells; format: cell-based, mouse; details: actively growing tumor cells
# Experimental: as §1
# B16 melanoma [2] = test: B16 melanoma implanted ip, drug ip (ip-ip) in BDF1 mice; format: in vivo; details: B16 ip implanted; for % ILS / MST (median survival time) / (surv) sixty day survivors/number of mice treated: drug ip days 1, 5, 9; for OD (optimal dose): drug ip days 1, 5, 9, 0.1 mL vehicle
# Experimental: (§2) Subcutaneously implanted B16 melanoma in BDF1 mice is a slow growing tumor, but its rate of growth becomes faster when it is implanted ip. […] This is not consistent with data in other tumors; however, in this connection it should be pointed out that the combined effects of drugs (or enantiomers in this case) can be manifested in several ways, i.e., they can be synergistic, additive, or subtractive.
# (§3) 0.2 ml of brei (tumor weight/Hank's balanced salt solution, (1:5) of B16
# (§4) implanted sc or ip into groups of nine BDF1 mice on day 0. Drugs
# (§5) administered iv on day 1 or ip on days 1, 5, and 9, following tumor
# (§6) administered ip on days 1, 5, and 9. OD, optimal dose in
# (§7) milligrams/milliliter of vehicle, and administered iv or ip in 0.1 mL of
# (§8) vehicle (5% v/v Me2 SOsaline). MST, median survival times in days of
# (§9) tumor bearing and nondrug treated (control) or drugtreated mice. % ILS,
# (§10) percent increase in life span of drug treated groups over the control
# (§11) group of test animals, excluding survivors. (surv), number of sixty day
# (§12) survivors/number of mice treated with drug.
# L1210 cells = test: Inhibition of growth of L1210 cells in culture; format: cell-based, Murine
# Experimental: as §1
# C26 colon carcinoma = C26 colon carcinoma implanted in CDF1 mice, drug ip; format: in vivo; details: for % ILS / (surv) sixty day survivors/number of mice treated / MST: drug ip days 1, 5, 9; for OD (optimal dose): drug ip days 1, 5, 9, 0.1 mL vehicle
# Experimental: implantation. Primary colon C26 carcinoma (tripan blue excluding, 2.5
# × 10^5 cells/mouse) implanted in CDF1 mice on day 0; drug
# as §6, §7, §8, §9, §10, §11, §12
# P388/ADR [3] = test: Antitumor activity against ip implanted P388/ADR in CDF1 mice; format: in vivo; parameters: OD (optimal dose of drugs): unit not given here; details: for % ILS (percent increase in median life time vs controls) / (surv) number of 60 days survivors/number of animals tested / MST (median survival time): ip qd 1-9, at optimal dose; for OD (optimal dose of drugs): treated ip qd 1-9
# Experimental: ^e Optimal dose of drugs.
# ^ f Median survival time of tumor bearing mice.
# ^g Percent increase in median life time in days of drugtreated dying
# animals vs those of controls; (survivors), number of 60 days
# survivors/number of animals tested in the group.
# In order to examine a broader spectrum of activity, these optical isomers are tested in two other mouse leukemia cell lines in vivo. One cell line, P388/ADR, is a derivative of the above P388/S made resistant to intercalating agents like […].
# leukemia L1210 = test: Activity in mice bearing leukemia L1210; format: in vivo; details: L1210 ip in CDF1 mouse; for OD (optimal dose): ip days 1, 5, 9; for % ILS (percent increase in median life span) / (surv) number of over 60 days survivors/number of animals tested: ip days 1, 5, 9, at optimal dose
# From the text: ^e OD, optimal dose of drugs in milligrams/killograms per injection,
# administered ip on days 1, 5, and 9, following ip inoculation with
# ^f % ILS, percent increase in median life span in days, of the
# tumorbearing drugtreated dying animals when compared with similar tumor
# bearing mice but not treated with drugs. (surv), number of over 60 days
# survivors/number of animals tested.
# B16 melanoma [4] = test: B16 melanoma implanted sc, drug iv (sc-iv) in BDF1 mice; format: in vivo; details: B16 sc implanted; for % ILS / MST (median survival time) / (surv) sixty day survivors/number of mice treated: drug iv day 1; for OD (optimal dose): drug iv day 1, 0.1 mL vehicle
# Experimental: as §2, §3, §4, §5, §6, §7, §8, §9, §10, §11, §12
# CCRF-CEM [5] = test: In vitro growth inhibition of CCRF-CEM human lymphoblastic leukemia cells; format: cell-based; details: purer (90%) form of isomers
# Experimental: as §1
# [6] = test system: RNA synthesis in L1210 cells; test: Inhibition of RNA synthesis in L1210 ([5-3H]uridine incorporation); format: cell-based, Murine; details: [5-3H]uridine incorporation into RNA; read-out: inhibition of synthesis of nucleic acids in L1210 IC50 RNA
# Experimental: (§13) ^a Drug concentration (micromolor) for 50% reduction of incorporation
# (§14) of [methyl^14 C]thymidine into DNA^b and [5^3 H] uridine into
# (§15) RNA^c from the rate of incorporation of the same radionucleotides in
# (§16) nondrug treated L1210 cells growing actively in vitro.
# (§17) Inhibition of nucleic acid synthesis in L1210 lymphoid leukemia cells by (±)-EPA and it optical isomers are assayed. […] To achieve this, a digestion of the nucleic acid pellet with DNase-free RNase enzyme, prior to final pelleting of the DNA precipitate is made to ensure that no more than ±8% contamination from […] into DNA takes place, and for this the necessary correction is made in the data reported in Table V.
# [7] = test system: DNA synthesis in L1210 cells; test: Inhibition of DNA synthesis in L1210 ([methyl-14C]thymidine incorporation); format: cell-based, Murine; details: [methyl-14C]thymidine incorporation into DNA; read-out: inhibition of synthesis of nucleic acids in L1210 IC50 DNA
# Experimental: as §13, §14, §15, §16, §17
# CCRF-CEM [8] = details: cited from earlier work
# [9] = test system: P388/S lymphocytic leukemia; details: cited from earlier work
Compound,inhibition of growth ID50 B16 (B16) [nM],inhibition of growth ID50 P388/ADR (P388/ADR [1]) [nM],% ILS (B16 melanoma [2]) [%],MST (median survival time) (B16 melanoma [2]) [days],OD (optimal dose) (B16 melanoma [2]),inhibition of growth of L1210 cells in culture; ID50 (L1210 cells) [nM],% ILS (C26 colon carcinoma) [%],(surv) sixty day survivors/number of mice treated (C26 colon carcinoma),MST (C26 colon carcinoma) [days],OD (optimal dose) (C26 colon carcinoma),% ILS (percent increase in median life time vs controls) (P388/ADR [3]) [%],(surv) number of 60 days survivors/number of animals tested (P388/ADR [3]),MST (median survival time) (P388/ADR [3]) [days],OD (optimal dose of drugs) (P388/ADR [3]),OD (optimal dose) (leukemia L1210),% ILS (percent increase in median life span) (leukemia L1210) [%],(surv) number of over 60 days survivors/number of animals tested (leukemia L1210),% ILS (B16 melanoma [4]) [%],MST (median survival time) (B16 melanoma [4]) [days],OD (optimal dose) (B16 melanoma [4]),other results
"Cc1c2oc3c(C)c(OCC4CO4)cc(C(=O)NC4C(=O)NC(C(C)C)C(=O)N5CCCC5C(=O)N(C)CC(=O)N(C)C(C(C)C)C(=O)OC4C)c3nc-2c(C(=O)NC2C(=O)NC(C(C)C)C(=O)N3CCCC3C(=O)N(C)CC(=O)N(C)C(C(C)C)C(=O)OC2C)c(N)c1=O [(S)-(-)-EPA, 7-(2,3-epoxypropoxy) actinomycin D]",3.5 ± 1.0,135 ± 12,74,33.0,0.30 milligrams/milliliter of vehic,56.8 ± 8.8,64,1/10,36.0,0.90 milligrams/milliliter of vehic,377,5/10,43,0.80,0.05 milligrams/killograms per inje,143,1/9,60,53.0,1.0 milligrams/milliliter of vehic,50% growth inhibitory dose (ID50) (CCRF-CEM [5]; listed as S-(-) isomer): 3.5 nM
"CO[C@@]12[C@H](COC(N)=O)C3=C(C(=O)C(C)=C(N)C3=O)N1C[C@@H]1N[C@@H]12 [mitomycin, mitomycin C, reference compound]",–,–,–,–,–,–,–,–,–,–,400,5/10,45,1.0,–,–,–,–,–,–,–
"Cc1c2oc3c(C)c(OCC4CO4)cc(C(=O)NC4C(=O)NC(C(C)C)C(=O)N5CCCC5C(=O)N(C)CC(=O)N(C)C(C(C)C)C(=O)OC4C)c3nc-2c(C(=O)NC2C(=O)NC(C(C)C)C(=O)N3CCCC3C(=O)N(C)CC(=O)N(C)C(C(C)C)C(=O)OC2C)c(N)c1=O (racemic) [3b[(±)-EPA]] [7-(2,3-epoxypropoxy) actinomycin D]",2.5 ± 0.6,80 ± 11,105,–,0.30 milligrams/milliliter of vehic,28.7 ± 8.7,64,0/10,36.0,0.60 milligrams/milliliter of vehic,344,4/10,40,0.65,0.05 milligrams/killograms per inje,186,2/9,64,54.0,1.0 milligrams/milliliter of vehic,(surv) sixty day survivors/number of mice treated (B16 melanoma [2]): 2/9; IC50 [6]: 24 ± 4 nM; IC50 [7]: 80 ± 19 nM; antitumor activity in CCRF-CEM cells in vitro (CCRF-CEM [8]): high antitumor activity; % ILS (percent increase in median life time vs controls) (P388/ADR [3]; listed as racemic EPA): 344%; (surv) number of 60 days survivors/number of animals tested (P388/ADR [3]; listed as racemic EPA): four out of 10; (surv) sixty day survivors/number of mice treated (B16 melanoma [4]): 0/9; antitumor activity in P388/S mouse leukemia in vivo [9]: high antitumor activity
"Cc1c2oc3c(C)c(OCC4CO4)cc(C(=O)NC4C(=O)NC(C(C)C)C(=O)N5CCCC5C(=O)N(C)CC(=O)N(C)C(C(C)C)C(=O)OC4C)c3nc-2c(C(=O)NC2C(=O)NC(C(C)C)C(=O)N3CCCC3C(=O)N(C)CC(=O)N(C)C(C(C)C)C(=O)OC2C)c(N)c1=O [(R)-(+)-EPA, 7-(2,3-epoxypropoxy) actinomycin D]",2.0 ± 0.4,40 ± 12,105,39.0,0.30 milligrams/milliliter of vehic,23.1 ± 7.7,89,2/10,41.5,0.60 milligrams/milliliter of vehic,400,4/10,45,0.30,0.05 milligrams/killograms per inje,199,3/9,70,56.0,1.0 milligrams/milliliter of vehic,(surv) sixty day survivors/number of mice treated (B16 melanoma [2]): 2/9; (surv) sixty day survivors/number of mice treated (B16 melanoma [4]): 1/9; 50% growth inhibitory dose (ID50) (CCRF-CEM [5]; listed as R-(+) isomer): 2.0 nM
"COc1cccc2c1C(=O)c1c(O)c3c(c(O)c1C2=O)C[C@@](O)(C(=O)CO)C[C@@H]3O[C@H]1C[C@H](N)[C@H](O)[C@H](C)O1 [adriamycin, reference compound]",–,–,224,60.0,5.0 milligrams/milliliter of vehic,–,118,3/10,48.0,2.50 milligrams/milliliter of vehic,–,–,–,–,–,–,–,79,59.0,5.0 milligrams/milliliter of vehic,(surv) sixty day survivors/number of mice treated (B16 melanoma [2]): 7/9; (surv) sixty day survivors/number of mice treated (B16 melanoma [4]): 1/9
